Test results from US6001882A (priority 1997, dated 1999).
Like-named read-outs stand apart in the source and are kept apart here.

Assays:
[1] = system: neoplastic ("CTL") PBMC; assay: Lymphocyte proliferation (3H-TdR incorporation), ConA-stimulated neoplastic PBMC from subject having CTCL; format: cell-based, human; conditions: Homo sapiens, PBMC, read-out: IC50 of ConA-induced cell proliferation
Source text: (§1) In two of the types of lymphocytes, the mitogen, ConA, was used to induce proliferation, as described (Fox et al., 1993, Cell. Immunol. 150:45-58). The third type of lymphocytes used in this example proliferated actively in vitro without the need for mitogenic stimulation. The three types of lymphocytes which were used in this example were: PBMC obtained from a normal human subject and stimulated with ConA; PBMC, including malignant CD4+ T-lymphocytes, obtained from a human subject having CTCL and stimulated with ConA; and PBMC obtained from a normal human subject, which PBMC were exposed to Epstein-Barr virus (EBV) after being obtained from the subject, to produce transformed lymphocytes. It is known that EBV-transformed B-lymphocytes proliferate actively in vitro (Polack, 1996, Proc. Natl. Acad. Sci. U.S.A. 93:10411-10416; Longnecker, 1994, Leukemia 8:546-550).
(§2) Peripheral blood mononuclear cells (PBMC) were obtained by separating them from whole blood, using Ficoll-Paque separation techniques and media (Boyum, 1964, Nature 793-794). After they were obtained, PBMC were resuspended in RPMI 1640 medium, which comprised 10% (v/v) fetal bovine serum (GIBCO, Grand Island, N.Y.), and were distributed into the wells of 96-well microtiter plates. PBMC transformed using EBV were made as described (Neitzel, 1986, Hum. Gen. 73:320-326)
(§3) This stock solution stored at 4° C. in the dark. A stock solution comprising 462.5 μM 8-methoxypsoralen (8-MOP) was prepared in 2% (v/v) benzyl alcohol. 8-MOP was obtained from Sigma (St. Louis, Mo.).
(§4) In cultures of transformed leukocytes in which 8-MOP was used, the concentrations of 8-MOP which were used were 92.5 μM, 18.5 μM, 3.7 μM, 0.74 μM, 0.15 μM, and 0.030 μM. Thereafter, ConA was then added to preselected wells to achieve a final concentration of 10 μg/ml of ConA in those wells.
(§5) Following preparation of the microtiter culture plates, preselected plates were illuminated with fluorescent visible light for 10-30 minutes, using four fluorescent bulbs (type F15T8CW, TFC Inc., Taiwan) spaced at a distance of 9 cm above the plates. Other preselected plates were illuminated with 0.5-2 Joules per square centimeter UV-A light using a UV-A light box containing 8 UVAR 06-91 bulbs. Still other preselected plates were not exposed to light. The covers of plates which were exposed to light were left in place during illumination.
(§6) Following illumination, plates which had been illuminated were placed into a dark incubator which was maintained at 37° C. Non-illuminated plates were placed into the incubator immediately after preparation. All plates were incubated for seventy-two hours. During the final eighteen hours of incubation, tritiated thymidine (^3 H-TdR) was added to each well of each plate. No extraordinary precautions were used to prevent light exposure during the addition of ^3 H-TdR.
(§7) Lymphocyte proliferation was assessed by measuring the extent of incorporation of ^3 H-TdR into newly synthesized DNA within the cells at the end of the seventy-two hour incubation period, as described (Fox, 1993, Cell. Immunol. 150:45-58).

[2] = system: transformed ("EBV") PBMC; assay: Lymphocyte proliferation (3H-TdR incorporation), EBV-transformed PBMC; format: cell-based, human; conditions: for IC50: Homo sapiens, PBMC, read-out: IC50 of cell proliferation
Source text: as §1, §2, §3, §4, §5, §6, §7

[3] = system: PBMC obtained from a patient having CTCL; assay: Induction of apoptosis of CTCL PBMC, TUNEL assay (Example 2); format: cell-based, human; conditions: for percentage of PBMC which underwent apoptosis: 10 μM hypericin or 100 ng/ml 8-MOP
Procedure: The processing of neoplastic leukocytes, the media and stock solutions used, and the procedures which were used were the same as those presented in Example 1, except as described below.
Cultures were illuminated using fluorescent light for 20 minutes, illuminated with 2 J/cm^2 UV-A light or were not illuminated. After 24 and 48 hours, apoptosis was measured using a TUNEL assay, as described (Sgonc, 1994 Trends Gen. 10:41-42). The TUNEL assay specifically labels free ends of internucleosomally-cleaved DNA--the hallmark of the apoptotic process.

[4] = system: PBMC obtained from a normal human subject; assay: Induction of apoptosis in normal PBMC, TUNEL assay (Example 3); format: cell-based; conditions: for percentage of PBMC which underwent apoptosis: Normal, 18 h
[5] = system: PBMC obtained from a subject having CTCL; assay: Induction of apoptosis in CTCL PBMC, TUNEL assay (Example 3); format: cell-based, human; conditions: for percentage of PBMC which underwent apoptosis: CTCL, 18 h; for capability of inducing apoptosis: malignant leukocytes

`COc1c2occc2cc2ccc(=O)oc12` [8-MOP, 8-methoxypsoralen] was tested, and the IC50 ([1]; 10 min, visible light, 10 min) was 3.6 µM, the IC50 ([1]; 20 min, visible light, 20 min) was 3.6 µM and the IC50 ([1]; 0.5 h, visible light, 30 min) was 3.1 µM. It also gave an IC50 ([1]; UV-A, 0.5 J/sc) of 0.74 µM, an IC50 ([1]; UV-A, 1 J/sc) of 0.2 µM and an IC50 ([1]; not illuminated, benzyl alcohol vehicle itself inhibitory at highest concentrations) of 4.4 µM. For the same molecule, the IC50 ([2]; 10 min, visible light, 10 min) was 18.7 µM, the IC50 ([2]; 20 min, visible light, 20 min) was 17.3 µM and the IC50 ([2]; 0.5 h, visible light, 30 min) was 18.9 µM. The IC50 ([2]; UV-A, 0.5 J/sc) was 4.2 µM, the IC50 ([2]; UV-A, 1 J/sc) was 1.6 µM and the IC50 ([2]; UV-A, 2 J/sc) was 0.7 µM. For the same molecule, the IC50 ([2]; not illuminated) was 19.4 µM, the “ability to inhibit proliferation, 2 vs 1 J/cm^2” value ([2]; UV-A 2 J/cm^2 relative to 1 J/cm^2) was “roughly doubled” and the “effect of UV-A on ability to inhibit proliferation” value ([2]; UV-A vs none) was “enhanced significantly upon illumination using UV-A light”. The “effect of visible light on ability to inhibit proliferation” value ([2]; visible light vs none) was “not enhanced upon illumination using visible light”, the “percentage of PBMC which underwent apoptosis” value (from here on “percentage”) ([3]; 24 h, UV-A 2 J/cm^2) was 87 percentage and the “percentage” value ([3]; 24 h, no light) was 11.5 percentage. The “percentage” value ([3]; 24 h, visible light 20 min) was 32 percentage, the “percentage” value ([3]; 48 h, UV-A 2 J/cm^2) was 94 percentage and the “percentage” value ([3]; 48 h, no light) was 21 percentage. The “percentage” value ([3]; 48 h, visible light 20 min) was 48 percentage, the “potency as inducer of apoptosis, hypericin vs 8-MOP” value ([3]; UV-A light) was “approximately equally potent inducers of apoptosis of malignant leukocytes” and the “percentage” value ([4]; 1 μM, UV-A 2 J/cm^2) was 22.9 percentage. For the same molecule, the “percentage” value ([4]; 1 μM, no light) was 3.8 percentage, the “percentage” value ([4]; 1 μM, visible light 20 min) was 13.7 percentage and the “percentage” value ([4]; 10 μM, UV-A 2 J/cm^2) was 63.0 percentage. For the same molecule, the “percentage” value ([4]; 10 μM, no light) was 6.8 percentage, the “percentage” value ([4]; 10 μM, visible light 20 min) was 15.3 percentage and the “capability of inducing apoptosis” value ([4]; normal leukocytes, visible light) was “not 8-MOP, is capable of inducing apoptosis in both normal and malignant leukocytes”. For the same molecule, the “percentage” value ([5]; 1 μM, UV-A 2 J/cm^2) was 44.0 percentage, the “percentage” value ([5]; 1 μM, no light) was 2.5 percentage and the “percentage” value ([5]; 1 μM, visible light 20 min) was 11.0 percentage. For the same molecule, the “percentage” value ([5]; 10 μM, UV-A 2 J/cm^2) was 74.3 percentage, the “percentage” value ([5]; 10 μM, no light) was 2.4 percentage and the “percentage” value ([5]; 10 μM, visible light 20 min) was 12.2 percentage. For the same molecule, the “selectivity of apoptosis induction, malignant vs normal leukocytes” value ([5]; UV-A light) was “the magnitude of the selective effect was much smaller”, the “capability of inducing apoptosis” value ([5]; UV-A light) was “capable of inducing apoptosis in malignant leukocytes” and the “capability of inducing apoptosis” value ([5]; visible light) was “not 8-MOP, is capable of inducing apoptosis in both normal and malignant leukocytes”.
